A short description of this series: Pharmacokinetic evaluation in mice (2), plasma. Type of series: in vivo, Balb/c male mice. An excerpt:
IV: intravenous injection; PO: oral; C0: instantaneous […] concentration after intravenous injection; Cmax: highest plasma concentration after administration; Tmax: time required to reach peak of drug concentration after administration; T1/2: time required for the plasma drug concentration to decrease by half, Vdss: apparent volume of distribution, refers to the proportional constant of the drug dose in vivo and the blood drug concentration when the drug reaches a dynamic equilibrium in vivo. Cl: clearance rate, refers to the […] cleared from the body per unit time; Tlast: time at the last detection point; AUC0-last: area under the drug-time curve, refers to the area covered by the plasma concentration curve and the time axis; F: a measure of the speed and degree of drug absorption into the blood circulation, which is an important indicator for evaluating the degree of drug absorption.
Test compounds were mixed with […]/50% polyethylene glycol 200/40% water, vortexed and sonicated to prepare a nearly clear solution of 0.4 mg/mL (compound 5), then filtered through a microporous membrane for next step. Balb/c male mice of 18 to 20 grams were selected and administered intravenously with the candidate compound solution at a dose of 2 mg/kg. Test compounds were mixed with 10% dimethyl sulfoxide/50% polyethylene glycol 200/40% water, vortexed and sonicated to prepare a nearly clear solution of 1 mg/mL, then filtered with a microporous membrane for next step. Balb/c male mice of 18 to 20 grams were selected and orally administered with the candidate compound solution at a dose of 10 mg/kg. Whole blood was collected for a certain period of time, and plasma was prepared, then drug concentration was detected by LC-MS/MS method, and pharmacokinetic parameters were calculated by Phoenix WinNonlin software (Pharsight, USA).

[1] abbreviates: male, Balb/c, 2 mg/kg, mouse plasma, IV 2 mpk.
[2] abbreviates: male, Balb/c, 10 mg/kg, mouse plasma, PO 10 mpk.

As for `Cc1cc2ncnn2cc1Nc1ncc2c(n1)n(N1CC3CCC(C1)O3)c(=O)n2C` [Compound 5], under setting [1], the AUC(0-t) (as a rule, the area under the concentration-time curve up to a stated or last time point) was 3.45 µM·h; the C0 turned out to be 4.74 µM; the clearance (usually the volume of plasma or blood freed of the substance per unit of time) was 23.7 mL/min/kg; the half-life – broadly, how long it takes for the measured level to halve – is 44 min. Besides, under “male, Balb/c, 2 mg/kg, mouse plasma, IV 2 mpk, read-out: Vdss”, the Vd was 1.07 L/kg. Besides, under setting [2], the AUC(0-t) came out at 23.2 µM·h; the peak level (Cmax) was 11.4 µM; the time of peak concentration (Tmax) – broadly, the time at which the peak concentration occurs – was 30 min; the half-life was 51 min. The compound further showed a Tlast (mouse plasma, IV 2 mpk) of 8 h. Also, the Tlast (mouse plasma, PO 10 mpk) was 10 h. For the setting “mouse, PO 10 mpk vs IV 2 mpk”, the F is reported as 134%.

The record behind these values is patent publication US20230026616A1, “PYRIMIDOIMIDAZOLE COMPOUNDS USED AS DNA-PK INHIBITORS” (MEDSHINE DISCOVERY INC., priority 2019, published 2023).
